In ChEMBL document CHEMBL5252628, “Novel xanthone antibacterials: Semi-synthesis, biological evaluation, and the action mechanisms” (Bioorg Med Chem, 2023):
Values after ≈ are worked out from the molar mass of the structure shown. Active and inactive are the calls of the source. No cut-off for these calls is given here.

What was measured:
Staphylococcus aureus [1] = assay: Antibacterial activity against methicillin-resistant Staphylococcus aureus 2 assessed as inhibition of bacterial growth incubated for 18 to 24 hrs by broth microdilution assay; assay type: functional; details: time 18-24 hrs
Staphylococcus aureus [2] = assay: Antibacterial activity against Staphylococcus aureus ATCC 43300 assessed as inhibition of bacterial growth incubated for 18 to 24 hrs by broth microdilution assay; assay type: functional; details: time 18-24 hrs
Escherichia coli = assay: Antibacterial activity against Escherichia coli ATCC 25922 assessed as inhibition of bacterial growth incubated for 18 to 24 hrs by broth microdilution assay; assay type: functional; details: time 18-24 hrs
Salmonella enteritidis = assay: Antibacterial activity against Salmonella enteritidis SM012 assessed as inhibition of bacterial growth incubated for 18 to 24 hrs by broth microdilution assay; assay type: functional, Salmonella enterica subsp. enterica serovar Enteritidis; details: Salmonella enterica, time 18-24 hrs
Staphylococcus aureus [3] = assay: Antibacterial activity against Staphylococcus aureus SH-27 assessed as inhibition of bacterial growth incubated for 18 to 24 hrs by broth microdilution assay; assay type: functional; details: time 18-24 hrs
Staphylococcus aureus [4] = assay: Antibacterial activity against Staphylococcus aureus ATCC 29213 assessed as inhibition of bacterial growth incubated for 18 to 24 hrs by broth microdilution assay; assay type: functional; details: time 18-24 hrs
Staphylococcus aureus [5] = assay: Antibacterial activity against Staphylococcus aureus ATCC 33591 assessed as inhibition of bacterial growth incubated for 18 to 24 hrs by broth microdilution assay; assay type: functional; details: time 18-24 hrs
[6] = Hemolytic activity in rabbit RBC assessed as hemolysis incubated for 1 hr by microtiter plate method; assay type: toxicity, cell-based, Oryctolagus cuniculus, Erythrocyte; details: red blood cells
Staphylococcus aureus [7] = assay: Bactericidal activity against Staphylococcus aureus ATCC 29213 assessed as reduction in colony forming unit at 1 to 8 times MIC incubated for 18 to 24 hrs by time kill assay; assay type: functional, organism-based; details: time 18-24 hrs
Staphylococcus aureus [8] = assay: Bactericidal activity against methicillin-resistant Staphylococcus aureus 2 assessed as reduction in colony forming unit at 1 to 8 times MIC incubated for 18 to 24 hrs by time kill assay; assay type: functional, organism-based; details: time 18-24 hrs
Staphylococcus aureus [9] = assay: Inhibition of biofilm formation in Staphylococcus aureus ATCC 29213 at 4 to 16 microg/ml incubated for 18 to 24 hrs by crystal violet staining based assay; assay type: functional, organism-based; details: dose 4-16 µg/ml, time 18-24 hrs
Staphylococcus aureus [10] = assay: Inhibition of biofilm formation in methicillin-resistant Staphylococcus aureus 2 at 4 to 16 microg/ml incubated for 18 to 24 hrs by crystal violet staining based assay; assay type: functional, organism-based; details: dose 4-16 µg/ml, time 18-24 hrs
Staphylococcus aureus [11] = assay: Antibacterial activity against Staphylococcus aureus ATCC 29213 assessed as cell wall loosening at 5 x MIC incubated for 2 hrs by transmission electron microscopy analysis; assay type: functional, organism-based
Staphylococcus aureus [12] = assay: Antibacterial activity against Staphylococcus aureus ATCC 29213 assessed as blurred space in cytoplasm and cell wall at 5 x MIC incubated for 2 hrs by transmission electron microscopy analysis; assay type: functional, organism-based
Staphylococcus aureus [13] = assay: Antibacterial activity against Staphylococcus aureus ATCC 29213 assessed as separation of plasma wall at 5 x MIC incubated for 2 hrs by transmission electron microscopy analysis; assay type: functional, organism-based
Staphylococcus aureus [14] = assay: Antibacterial activity against Staphylococcus aureus ATCC 29213 assessed as appearance of circular vesicles at 5 x MIC incubated for 2 hrs by transmission electron microscopy analysis; assay type: functional, organism-based
Staphylococcus aureus [15] = assay: Antibacterial activity against methicillin-resistant Staphylococcus aureus 2 assessed as cell wall loosening at 5 x MIC incubated for 2 hrs by transmission electron microscopy analysis; assay type: functional, organism-based
Staphylococcus aureus [16] = assay: Antibacterial activity against methicillin-resistant Staphylococcus aureus 2 assessed as blurred space in cytoplasm and cell wall at 5 x MIC incubated for 2 hrs by transmission electron microscopy analysis; assay type: functional, organism-based
Staphylococcus aureus [17] = assay: Antibacterial activity against methicillin-resistant Staphylococcus aureus 2 assessed as separation of plasma wall at 5 x MIC incubated for 2 hrs by transmission electron microscopy analysis; assay type: functional, organism-based
Staphylococcus aureus [18] = assay: Antibacterial activity against methicillin-resistant Staphylococcus aureus 2 assessed as appearance of circular vesicles at 5 x MIC incubated for 2 hrs by transmission electron microscopy analysis; assay type: functional, organism-based
Cell membrane [19] = assay: Induction of cell membrane permeability in Staphylococcus aureus ATCC 29213 at 5 x MIC incubated for 2 hrs by TO-PRO-3 reagent flow cytometry assay; assay type: subcellular
Cell membrane [20] = assay: Induction of cell membrane permeability in methicillin-resistant Staphylococcus aureus 2 at 5 x MIC incubated for 2 hrs by TO-PRO-3 reagent flow cytometry assay; assay type: subcellular
A549 = assay: Cytotoxicity against human A549 cells assessed as reduction in cell viability at 25 ug/ml incubated for 72 hrs by CCK-8 assay; assay type: toxicity, cell-based; details: a549, 72 h, dose 25 µg/ml
Cell membrane [21] = assay: Induction of membrane depolarization in Staphylococcus aureus ATCC 29213 at 5 x MIC incubated for 2 hrs by DiOC23 dye based based flow cytometry; assay type: subcellular
Cell membrane [22] = assay: Induction of membrane depolarization in methicillin-resistant Staphylococcus aureus 2 at 5 x MIC incubated for 2 hrs by DiOC23 dye based based flow cytometry; assay type: subcellular
L02 = assay: Cytotoxicity against human L02 cells assessed as reduction in cell viability at 25 ug/ml incubated for 72 hrs by CCK-8 assay; assay type: toxicity, cell-based; details: l02, 72 h, dose 25 µg/ml
Staphylococcus aureus [23] = assay: Antibacterial activity Staphylococcus aureus ATCC 29213 infected BALB/c mouse assessed as reduction in bacterial burden at 15 mg/kg,iv measured on day 1 and 3 after infection; assay type: functional, organism-based
Staphylococcus aureus [24] = assay: Induction of drug resistance in Staphylococcus aureus ATCC 29213 assessed as fold increase in MIC measured after 20 passage; assay type: functional

Structure (SMILES)	MIC (Staphylococcus aureus [1]) [µg/mL]	MIC (Staphylococcus aureus [2]) [µg/mL]	MIC (Escherichia coli) [µg/mL]	MIC (Salmonella enteritidis) [µg/mL]	MIC (Staphylococcus aureus [3]) [µg/mL]	MIC (Staphylococcus aureus [4]) [µg/mL]	MIC (Staphylococcus aureus [5]) [µg/mL]	other results
COc1c(O)cc2oc3cc(O)c(CCC(C)C)c(O)c3c(=O)c2c1CCC(C)C	64 (≈ 154 µM)	32 (≈ 77.2 µM)	> 256	> 256	64 (≈ 154 µM)	32 (≈ 77.2 µM)	64 (≈ 154 µM)	–
COc1c(OCCCCCCO)cc2oc3cc(O)c(CC=C(C)C)c(O)c3c(=O)c2c1CC=C(C)C	> 256	> 256	> 256	> 256	> 256	> 256	> 256	–
COc1c(O)cc2oc3cc(O)c(CC=C(C)C)c(O)c3c(=O)c2c1CC=C(C)C [MANGOSTIN]	2 (≈ 4.87 µM)	1 (≈ 2.44 µM)	> 256	> 256	2 (≈ 4.87 µM)	2 (≈ 4.87 µM)	1 (≈ 2.44 µM)	HC50 at 1 h [6]: 26.2 µg/mL; Activity (Staphylococcus aureus [7]): Active; Activity (Staphylococcus aureus [8]): Active; inhibition (Staphylococcus aureus [9]): Dose-Dependent Effect; inhibition (Staphylococcus aureus [10]): Dose-Dependent Effect; Activity (Staphylococcus aureus [11]): Active; Activity (Staphylococcus aureus [12]): Active; Activity (Staphylococcus aureus [13]): Active; Activity (Staphylococcus aureus [14]): Active; Activity (Staphylococcus aureus [15]): Active; Activity (Staphylococcus aureus [16]): Active; Activity (Staphylococcus aureus [17]): Active; Activity (Staphylococcus aureus [18]): Active; Activity (Cell membrane [19]): 100%; Activity (Cell membrane [20]): 100%; Activity (A549): Non-Toxic; Activity (Cell membrane [21]): Active; Activity (Cell membrane [22]): Active; Activity (L02): Non-Toxic
COc1c(O)cc2oc3cc4c(c(O)c3c(=O)c2c1CC=C(C)C)CCC(C)(C)O4	64 (≈ 156 µM)	64 (≈ 156 µM)	> 256	> 256	64 (≈ 156 µM)	64 (≈ 156 µM)	32 (≈ 78 µM)	–
COc1c(OCc2ccccc2)cc2oc3cc(OCc4ccccc4)c(CC=C(C)C)c(OCc4ccccc4)c3c(=O)c2c1CC=C(C)C	> 256	> 256	> 256	> 256	> 256	> 256	> 256	–
COc1c(OC(C)=O)cc2oc3cc(OC(C)=O)c(CC=C(C)C)c(OC(C)=O)c3c(=O)c2c1CC=C(C)C	> 256	> 256	> 256	> 256	16 (≈ 29.8 µM)	128 (≈ 239 µM)	> 256	HC50 at 1 h [6]: > 500 µg/mL; Activity (A549): Non-Toxic; Activity (L02): Non-Toxic
COc1c(O)cc2c(c1CC=C(C)C)Cc1c(cc(O)c(CC=C(C)C)c1O)O2	16 (≈ 40.4 µM)	4 (≈ 10.1 µM)	> 256	> 256	8 (≈ 20.2 µM)	16 (≈ 40.4 µM)	8 (≈ 20.2 µM)	HC50 at 1 h [6]: > 500 µg/mL; Activity (A549): Non-Toxic; Activity (L02): Non-Toxic
COc1c(OC(=O)C(C)C)cc2oc3cc(OC(=O)C(C)C)c(CC=C(C)C)c(O)c3c(=O)c2c1CC=C(C)C	> 256	> 256	> 256	> 256	> 256	> 256	> 256	–
COc1c(OC(=O)C(C)C)cc2oc3cc(OC(=O)C(C)C)c(CC=C(C)C)c(OC(=O)C(C)C)c3c(=O)c2c1CC=C(C)C	> 256	> 256	> 256	> 256	> 256	> 256	> 256	–
COc1c(O)cc2oc3cc(OC(=O)C(C)C)c(CC=C(C)C)c(O)c3c(=O)c2c1CC=C(C)C	> 256	> 256	> 256	> 256	> 256	> 256	> 256	–
COc1c(O)cc2oc3cc(OC(C)=O)c(CC=C(C)C)c(O)c3c(=O)c2c1CC=C(C)C	> 256	> 256	> 256	> 256	> 256	> 256	> 256	–
C=CCOc1cc2oc3cc(O)c(CC=C(C)C)c(O)c3c(=O)c2c(CC=C(C)C)c1OC	> 256	256 (≈ 568 µM)	> 256	> 256	2 (≈ 4.44 µM)	> 256	256 (≈ 568 µM)	HC50 at 1 h [6]: 403 µg/mL; Activity (A549): Non-Toxic; Activity (L02): Non-Toxic
COc1c(OC(=O)C(C)C)cc2oc3cc(O)c(CC=C(C)C)c(O)c3c(=O)c2c1CC=C(C)C	> 256	> 256	> 256	> 256	> 256	> 256	> 256	–
COc1cc2oc3cc(OC)c(OC)c(CC=C(C)C)c3c(=O)c2c(OC)c1CC=C(C)C	> 256	> 256	> 256	> 256	> 256	> 256	> 256	–
CCN1CCN(c2cc3c(cc2F)c(=O)c(C(=O)O)cn3C2CC2)CC1 [ENROFLOXACIN]	32 (≈ 89 µM)	–	0.0156 (≈ 0.0434 µM)	–	128 (≈ 356 µM)	0.06 (≈ 0.167 µM)	–	Activity (Staphylococcus aureus [23]): Active
Cc1onc(-c2ccccc2)c1C(=O)N[C@@H]1C(=O)N2[C@@H]1SC(C)(C)[C@@H]2C(=O)O [OXACILLIN]	–	–	–	–	–	–	–	fold change (FC) (Staphylococcus aureus [24]): 64
COc1c(OCCCCCCO)cc2oc3cc(OCCCCCCO)c(CC=C(C)C)c(O)c3c(=O)c2c1CC=C(C)C	> 256	> 256	> 256	> 256	> 256	> 256	> 256	–
C=CCOc1cc2oc3cc(OCC=C)c(OC)c(CC=C(C)C)c3c(=O)c2c(OC(C)=O)c1CC=C(C)C	> 256	> 256	> 256	> 256	> 256	> 256	> 256	–
COc1c(O)cc2oc3cc(O)c(CC=C(C)C)c(OC(=O)C(C)C)c3c(=O)c2c1CC=C(C)C	2 (≈ 4.16 µM)	1 (≈ 2.08 µM)	> 256	> 256	1 (≈ 2.08 µM)	2 (≈ 4.16 µM)	1 (≈ 2.08 µM)	HC50 at 1 h [6]: 263 µg/mL; Activity (A549): Non-Toxic; Activity (L02): Non-Toxic
COc1c(OC(C)=O)cc2oc3cc(OC(C)=O)c(CC=C(C)C)c(O)c3c(=O)c2c1CC=C(C)C	> 256	> 256	> 256	> 256	> 256	> 256	> 256	–
C=CCOc1cc2oc3cc(OCC=C)c(OC)c(CC=C(C)C)c3c(=O)c2c(OC(=O)C(C)C)c1CC=C(C)C	> 256	> 256	> 256	> 256	> 256	> 256	> 256	–
C=CCOc1cc2oc3cc(OCC=C)c(OC)c(CC=C(C)C)c3c(=O)c2c(O)c1CC=C(C)C	> 256	> 256	> 256	> 256	> 256	> 256	> 256	–
